Patent US8809368B2, “Compounds affecting gap junction activity” (Kansas State University Research Foundation, priority 2006, dated 2014)
≈ marks a conversion by molar mass, not a printed value.

What was measured:
MCF-7 = assay: Gap junction intercellular communication, MCF-7 cells; type: cell-based, human; settings: Table 1
ZR75 = assay: Gap junction intercellular communication, ZR75 cells; type: cell-based, human; settings: Table 1
Trypanosoma brucei = assay: Anti-trypanosomal activity, inhibition of T. brucei growth (ATP-bioluminescence luciferase assay); type: cell-based; settings: read-out: IC50 against Trypanosoma brucei
Procedure: The antiparasitic activities of exemplary compounds described here was studied using the anti-trypanosomal activity protocol described in: Rapp M, et al. J Med Chem 2006; 49:2096-102. […] FIG. 1 summarizes the compound inhibition of T. brucei growth. It is seen that compounds of the invention are useful in inhibiting T. brucei growth.
Culturing of Parasites. The bloodstream form of Trypanosoma brucei 427 strain was maintained under the standard cell culture conditions (37° C., 5% CO2). The parasites were grown in complete HMI-9 medium containing 10% FBS, 10% Serum Plus and 1× Penicillin/Streptomycin. (Angew. Chem. Int. Ed. Engl. 2003, 42, 5274-5293).
Luciferase Assay. Luciferase assay was used to measure ATP-bioluminescence in T. brucei cultured in 96-well plates at 37° C. for 48 hours. Parasites were diluted to 1.0×10^5 cells/mL in complete HMI-9 medium. One hundred microliters (100 μL) of the diluted parasites were aliquoted into sterile 96-well flat white opaque culture plates (Greiner). Each compound was serially diluted from 10 μM to 0.1 μM in DMSO and then mixed in the appropriate wells containing parasites. The treated parasites were then incubated for 48 hours at 37° C. with 5% CO2 before monitoring viability. To measure the viability of the parasites after treatment with each compound, the parasites were lysed in the wells by adding 100 μL of CellTiter-Glo™ (Promega). After lysis, the ATP bioluminescence of the 96-well plates was measured with a SpectraFluor Plus multidetection plate reader (Tecan).

[1] = test system: T47D human breast cancer cells; assay: Soft agar colony growth, T47D cells; type: cell-based; settings: for effect on breast cancer cell colony growth: Table 2
Procedure: Base agar plates were prepared containing 0.8% agar and 0.4% agar in Ham's F12. Cells (5×10^4 cells/33 mm^2 well) were suspended in 100 μl of Ham's F12 with 0.4% agar and plated. These plates were maintained at 37° C. for 7 days and examined for the presence of colonies. Individual colonies of 50 μm or greater were examined. T47D cells were treated with 1, 10 and 100 nM PQ1 and SA (succinic acid) as a solvent control. Individual colonies of 50 μm or greater were examined. Statistical significance, *p<0.05, of at least three experiments
FIG. 3(A) MDA-MB-453 and (B) T47D human breast cancer cells were treated with 10 μM of various quinolines for 7 days. Base agar plates were prepared containing 0.8% agar and 0.4% agar in Ham's F12. Cells (5×10^4 cells/33 mm well) were suspended in 100 μl of Ham's F12 with 0.4% agar and plated. These plates were maintained at 37° C. for 7 days and examined for the presence of colonies. Individual colonies of 40 μm or greater were examined. […] However, PQ3 caused a 2.3-fold increase in colony growth in MDA-MB-453 cells and PQ2 caused a 2.6-fold increase in T47D colony growth compared to DMSO. FIGS. 7 and 8 show MDA-MB-453 and T47D colony growth for various concentrations of PQ1 and SA tested for 7 days. The procedures are generally as described above. The cell colony growth decreased using 10 and 100 nM PQ1 for both cell types.
(§1) Colony Growth Assay: T47D human breast cancer cells were treated with PQ1. Base agar plates were prepared containing 0.8% agar and 0.4% agar in Ham's F12. Cells (5×10^4 cells/33 mm2 well) were suspended in 100 μl of Ham's F12 with 0.4% agar and plated. These plates were maintained at 37° C. for 7 days and examined for the presence of colonies. Individual colonies of 40 um or greater were examined.
Various oncogenes (e.g. ras, raf, neu, src, mos) down-regulate GJIC while several tumor suppressor genes can up-regulate GJIC. […] Cells were grown in soft agar to assess their capacity for anchorage-independent growth, which is a key feature of cell transformation due to the importance of cell-cell and cell-matrix based tumor suppression. MEC and T47D cells were treated with 10, 100, 1000, and 10000 nM PQ1 for 7 days. A graphical presentation of three experiment results is presented in log scale of PQ1 concentration. […] A 100 nM PQ1 inhibits 66% of colony growth compared to controls, without PQ1 treatment or 100 nM succinic acid.
as §1, with “Using Soft Agar. Cells” for “Assay: T47D human breast cancer cells”, “0, 10, 100, 200 and 500 nM PQ1 for 7 days.” for “PQ1.”, “mm^2” for “mm2”, “50 μm” for “40 um”

SW620 colon cancer cells = assay: Gap junction activity, SW620 colon cancer cells; type: cell-based
Procedure: However, PQ3 has an opposite effect on mammary cancer cell lines. […] A summary of PQ-mediated GJIC activity and colony growth in breast and colon cancer cells is presented in Tables 1, 2, and 3, as well as FIGS. 10-13. In FIG. 10, SW620 cells were dosed for 24 hours with PQ1 at 100, 200, 300, and 500 nM. The gap junction activity was measured as a percent of control, as previously described. It was seen that all concentrations on PQ1 increased the gap junction activity in SW620 colon cancer cells as compared to the control. In FIG. 11, the effect of PQ1 on the expression of PKCγ was studied at concentrations of 100, 200, 300 and 500 nM PQ1 for 24 hours. It is seen in FIG. 11 that PQ1 has no effect on the expression of PKCγ at the levels tested. In FIGS. 12 and 13, the effect of PQ1 on the colony growth of SW620 colon cancer cells was measured with 1-100 nM PQ1 (FIG. 12) and 10 uM PQ1 (FIG. 13).

| Compound | effect on gap junction intercellular communication (MCF-7) | effect on gap junction intercellular communication (ZR75) | IC50 (Trypanosoma brucei) [µg/mL] | colony growth attenuation ([1]; 10 μM, 7 days, compared to control) | colony growth compared to control ([1]; 10, 100, 1000 and 10000 nM, 7 days) | cell colony growth ([1]; 10 and 100 nM, 7 days) | inhibition at 0.1 µM ([1]; Homo sapiens, 168 h, 100 nM, 7 days, compared to controls) [%] | effect on breast cancer cell colony growth [1] | gap junction activity as compared to the control (SW620 colon cancer cells; 100, 200, 300 and 500 nM, 24 hours) | effect on gap junction intercellular communication (SW620 colon cancer cells; Table 3, 300 nM) | effect on colony growth ([1]; 10 μM, 7 days) | effect on gap junction intercellular communication (SW620 colon cancer cells; Table 3, 500 nM) |
| --- | --- | --- | --- | --- | --- | --- | --- | --- | --- | --- | --- | --- |
| COc1cc(NCCCN)c2nccc(C)c2c1Oc1cccc(C(F)(F)F)c1.O=C(O)CCC(=O)O [PQ1, 6-Methoxy-8-[(3-aminopropyl)amino]-4-methyl-5-(3-trifluoromethylphenyloxy) quinoline succinic acid] | No effect | Decrease | 0.34 | 80-95% | significant inhibition | decreased | 66 | Decrease | increased | Increase | – | – |
| COc1cc(N)c2nccc(C)c2c1Oc1cccc(C(F)(F)F)c1 [PQ3, 8-Amino-6-methoxy-4-methyl-5-(3-trifluoromethylphenyloxy)quinoline] | Decrease | No effect | 1.08 (≈ 3.11 µM) | – | – | – | – | Decrease | – | – | inhibitory effect | Increase |
